Here are results for twelve molecules from PubChem BioAssay AID180 (DTP/NCI, 2004).

“And” between values parts separate entries of the source, which are not always exact repeats. Equal entries are not always repeated.

In the experiment the test system is BDF1 mice, Adenocarcinoma 755 s.c., tumor weight T/C. The experiment is described as follows: NCI In Vivo Anticancer Drug Screen. Data for tumor model Adenocarcinoma 755 (subcutaneous) in B6D2F1 (BDF1) mice. To be noted: endpoint: mean tumor weight, higher = larger tumour. The procedure, abridged: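 Compound activity was tested in mice carrying transplanted tumors. Survival or tumor size was measured, and each value is the treated-group measurement divided by that of the vehicle-treated control group (T/C).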

Setting [1] is: dose: 100.0 mg/kg/injection, schedule: Q01DX011 (ip), vehicle: carboxymethylcellulose (CMC).
[2] abbreviates: dose: 45.0 mg/kg/injection, schedule: Q01DX011 (ip), vehicle: carboxymethylcellulose (CMC).
Setting [3] is: dose: 25.0 mg/kg/injection, schedule: Q01DX011 (ip), vehicle: methylcellulose (MC).
Where [4] appears, read: dose: 75.0 mg/kg/injection, schedule: Q01DX011 (ip), vehicle: methylcellulose (MC).

As for `O=[N+]([O-])c1ccc(-n2cnc3c(=S)nc[nH]c32)o1`, the T/C (commonly the ratio of treated to control) was 105 % of control (dose: 0.2 mg/kg/injection, schedule: Q01DX011 (ip), vehicle: carboxymethylcellulose (CMC)); 92 % of control (dose: 0.4 mg/kg/injection, schedule: Q01DX011 (ip), vehicle: carboxymethylcellulose (CMC)); 86 % of control (dose: 0.8 mg/kg/injection, schedule: Q01DX011 (ip), vehicle: carboxymethylcellulose (CMC)); 29 % of control and 44 % of control (dose: 1.6 mg/kg/injection, schedule: Q01DX011 (ip), vehicle: carboxymethylcellulose (CMC)); 32 % of control (dose: 3.2 mg/kg/injection, schedule: Q01DX011 (ip), vehicle: carboxymethylcellulose (CMC)); 1 % of control (dose: 6.3 mg/kg/injection, schedule: Q01DX011 (ip), vehicle: carboxymethylcellulose (CMC)).
Regarding `Cc1nc(Cl)c(C#N)c(C(F)(F)F)c1N`, the T/C under setting [1] was 153 % of control.
For the molecule `Cc1ccc(C)c(N=Nc2c(S(=O)(=O)O)cc3cc(NC(=O)Nc4ccc5c(O)c(N=Nc6ccc7cc(S(=O)(=O)O)ccc7c6)c(S(=O)(=O)O)cc5c4)ccc3c2O)c1`, the T/C under setting [2] is 59 % of control.
Take `NC(=O)c1cc(N)nc(N)n1`: the T/C runs as follows: (dose: 15.0 mg/kg/injection, schedule: Q01DX011 (ip), vehicle: methylcellulose (MC)) 97 % of control; (dose: 31.0 mg/kg/injection, schedule: Q01DX011 (ip), vehicle: methylcellulose (MC)) 106 % of control; (dose: 62.0 mg/kg/injection, schedule: Q01DX011 (ip), vehicle: methylcellulose (MC)) 114 % of control; (dose: 125.0 mg/kg/injection, schedule: Q01DX011 (ip), vehicle: methylcellulose (MC)) 45 % of control.
`CCCc1c(Cl)nc(Cl)nc1Cl`: the T/C is 54 % of control (dose: 17.5 mg/kg/injection, schedule: Q01DX011 (ip), vehicle: carboxymethylcellulose (CMC)); 85 % of control (dose: 25.0 mg/kg/injection, schedule: Q01DX011 (ip), vehicle: carboxymethylcellulose (CMC)); 104 % of control (dose: 35.0 mg/kg/injection, schedule: Q01DX011 (ip), vehicle: carboxymethylcellulose (CMC)); 43 % of control (dose: 50.0 mg/kg/injection, schedule: Q01DX011 (ip), vehicle: carboxymethylcellulose (CMC)); 44 % of control under setting [1].
As to `OCCn1cnc2c(=S)nc[nH]c21`, the T/C reads like this: under setting [3], 38 % of control; under setting [4], 74 % of control; (dose: 225.0 mg/kg/injection, schedule: Q01DX011 (ip), vehicle: methylcellulose (MC)) 34 % of control.
Take `O=C(NC(CO)C(=O)O)C(Cl)Cl` (centres undefined): the T/C (dose: 1000.0 mg/kg/injection, schedule: Q01DX011 (ip), vehicle: methylcellulose (MC)) is 93 % of control.
Turning to `Cc1ccc(N=Nc2c(S(=O)(=O)O)cc3cc(NC(=O)Nc4ccc5c(O)c(N=Nc6ccc7cc(S(=O)(=O)O)ccc7c6)c(S(=O)(=O)O)cc5c4)ccc3c2O)c(C)c1`, the T/C under setting [2] was 81 % of control.
In the case of `Nc1ncnc2c1ncn2C1CCCO1` (centres undefined), the T/C is, setting by setting: (dose: 18.7 mg/kg/injection, schedule: Q01DX011 (ip), vehicle: saline) 111 % of control; (dose: 37.5 mg/kg/injection, schedule: Q01DX011 (ip), vehicle: saline) 120 % of control; (dose: 75.0 mg/kg/injection, schedule: Q01DX011 (ip), vehicle: saline) 119 % of control; (dose: 150.0 mg/kg/injection, schedule: Q01DX011 (ip), vehicle: saline) 52 % of control; (dose: 300.0 mg/kg/injection, schedule: Q01DX011 (ip), vehicle: saline) 23 % of control.
For `CC[N+]([O-])(CC)c1n(C)c2c(=O)n(C)c(=O)n(C)c2[n+]1[O-]`, the T/C runs as follows: (dose: 30.0 mg/kg/injection, schedule: Q01DX011 (ip), vehicle: methylcellulose (MC)) 93 % of control; (dose: 60.0 mg/kg/injection, schedule: Q01DX011 (ip), vehicle: methylcellulose (MC)) 96 % of control; (dose: 120.0 mg/kg/injection, schedule: Q01DX011 (ip), vehicle: methylcellulose (MC)) 110 % of control; (dose: 240.0 mg/kg/injection, schedule: Q01DX011 (ip), vehicle: methylcellulose (MC)) 70 % of control.
`Nc1ccn(C2OC(CO)C(O)C2O)c(=O)n1` (centres undefined): the T/C (dose: 15.0 mg/kg/injection, schedule: Q01DX011 (ip), vehicle: saline) was 36 % of control; the T/C (dose: 27.0 mg/kg/injection, schedule: Q01DX011 (ip), vehicle: saline) was 14 % of control; the T/C (dose: 30.0 mg/kg/injection, schedule: Q01DX011 (ip), vehicle: saline) was 36 % of control; the T/C (dose: 40.0 mg/kg/injection, schedule: Q01DX011 (ip), vehicle: saline) was 7 % of control; the T/C (dose: 60.0 mg/kg/injection, schedule: Q## X024 (ip), vehicle: saline) is 15 % of control; the T/C (dose: 120.0 mg/kg/injection, schedule: Q## X024 (ip), vehicle: saline) was 8 % of control.
For the molecule `CSc1cc(NCc2ccccc2)nc(N)n1`, the T/C under setting [3] is 85 % of control and the T/C under setting [4] was 65 % of control.
